Molecular target: T1, BTK enzyme (recombinant full-length BTK, hBTK) (Homo sapiens, UniProt Q06187)
T1 construct: recombinant protein from baculovirus-transfected Sf9 cells: full-length BTK, 6HIS-tag cleaved; 6HIS (cleaved yes); made in house; host or cells: baculovirus-transfected Sf9 cells
Assay: Btk enzyme activity assay, LANCE TR-FRET
Type: biochemical
Settings: 50 pM hBTK, 2 μM biotin-A5-peptide, 25 μM ATP; 60 minute compound & enzyme incubation; 120 minutes reaction; read-out: BTK binding potency IC50
Description: Btk Enzyme Activity Assay Methods
BTK enzymatic activity was determined with the LANCE (Lanthanide Chelate Excite) TR-FRET (lime-resolved fluorescence resonance energy transfer) assay. […] Phosphorylation reactions were allowed to proceed for 120 minutes. […] After 60 minutes incubation with detection reagents, reaction plates were read on a PerkinElmer EnVision plate reader using standard TR-FRET protocol. Briefly, excitation of donor molecules (Eu-chelate:anti-phospho-antibody) with a laser light source at 337 nm produces energy that can be transferred to Dylight-650 acceptor molecules if this donor:acceptor pair is within close proximity. Fluorescence intensity at both 665 nm (acceptor) and 615 nm (donor) are measured and a TR-FRET ratio calculated for each well (acceptor intensity/donor intensity). IC50 values were determined by 4 parameter robust fit of TR-FRET ratio values vs. (Log10) compound concentrations.

T1 sequence (Q06187 whole entry): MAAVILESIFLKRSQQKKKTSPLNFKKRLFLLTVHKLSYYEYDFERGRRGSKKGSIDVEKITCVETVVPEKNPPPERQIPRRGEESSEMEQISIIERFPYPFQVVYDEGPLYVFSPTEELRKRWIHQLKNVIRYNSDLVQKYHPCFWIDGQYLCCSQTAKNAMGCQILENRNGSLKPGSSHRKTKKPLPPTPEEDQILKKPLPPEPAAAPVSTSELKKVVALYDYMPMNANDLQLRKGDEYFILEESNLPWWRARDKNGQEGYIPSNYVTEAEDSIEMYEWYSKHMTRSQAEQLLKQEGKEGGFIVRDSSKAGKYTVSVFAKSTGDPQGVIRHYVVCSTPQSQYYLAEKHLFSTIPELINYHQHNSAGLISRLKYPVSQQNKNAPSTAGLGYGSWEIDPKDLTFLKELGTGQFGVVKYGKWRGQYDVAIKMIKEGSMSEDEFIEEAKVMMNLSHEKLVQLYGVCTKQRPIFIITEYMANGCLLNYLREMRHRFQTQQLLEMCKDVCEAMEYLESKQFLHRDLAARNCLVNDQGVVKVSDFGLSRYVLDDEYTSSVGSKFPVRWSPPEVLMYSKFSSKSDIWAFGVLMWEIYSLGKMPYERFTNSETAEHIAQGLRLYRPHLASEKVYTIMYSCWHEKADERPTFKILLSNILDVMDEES

| SMILES | IC50 [nM] |
| --- | --- |
| COc1ccc(-c2ccc3c(c2)[nH]c2c(C(N)=O)cnc(N4CCC[C@@]5(CCNC5=O)C4)c23)cn1 [Example 67, 7-(6-methoxypyridin-3-yl)-1-[(5R)-1-oxo-2,7-diazaspiro[4.5]dec-7-yl]-5H-pyrido[4,3-b]indole-4-carboxamide] | 13.9 |
| COc1cc(-c2ccc3c(c2)[nH]c2c(C(N)=O)cnc(N4CCC[C@@]5(CCNC5=O)C4)c23)ccn1 [Example 69, 7-(2-methoxypyridin-4-yl)-1-[(5R)-1-oxo-2,7-diazaspiro[4.5]dec-7-yl]-5H-pyrido[4,3-b]indole-4-carboxamide] | 17.5 |
| CC(C)N1CCC(c2ccc3c(c2)[nH]c2c(C(N)=O)cnc(N4CCC[C@@]5(CCNC5=O)C4)c23)CC1 [Example 71, 7-[1-(1-methylethyl)piperidin-4-yl]-1-[(5R)-1-oxo-2,7-diazaspiro[4.5]dec-7-yl]-5H-pyrido[4,3-b]indole-4-carboxamide] | 0.83 |
| CC(C)(O)CN1CCC(c2ccc3c(c2)[nH]c2c(C(N)=O)cnc(N4CCC[C@@]5(CCNC5=O)C4)c23)CC1 [Example 72, 7-[1-(2-hydroxy-2-methylpropyl)piperidin-4-yl]-1-[(5R)-1-oxo-2,7-diazaspiro[4.5]dec-7-yl]-5H-pyrido[4,3-b]indole-4-carboxamide] | 0.63 |
| COc1ccc(-c2ccc3c(c2)[nH]c2c(C(N)=O)cnc(N4CCC[C@@]5(CCN(C)C5=O)C4)c23)cn1 [Example 74, 7-(6-methoxypyridin-3-yl)-1-[(5R)-2-methyl-1-oxo-2,7-diazaspiro[4.5]dec-7-yl]-5H-pyrido[4,3-b]indole-4-carboxamide] | 8.9 |
| COc1cc(-c2ccc3c(c2)[nH]c2c(C(N)=O)cnc(N4CCC[C@@]5(CCN(C)C5=O)C4)c23)ccn1 [Example 75, 7-(2-methoxypyridin-4-yl)-1-[(5R)-2-methyl-1-oxo-2,7-diazaspiro[4.5]dec-7-yl]-5H-pyrido[4,3-b]indole-4-carboxamide] | 9.5 |
| CC(C)N1CCC(c2ccc3c(c2)[nH]c2c(C(N)=O)cnc(N4CCC[C@@]5(CCN(C)C5=O)C4)c23)CC1 [Example 76, 7-[1-(1-methylethyl)piperidin-4-yl]-1-[(5R)-2-methyl-1-oxo-2,7-diazaspiro[4.5]dec-7-yl]-5H-pyrido[4,3-b]indole-4-carboxamide] | 0.64 |
| CN1CC[C@@]2(CCCN(c3ncc(C(N)=O)c4[nH]c5cc(C6CCN(CC(C)(C)O)CC6)ccc5c34)C2)C1=O [Example 77, 7-[1-(2-hydroxy-2-methylpropyl)piperidin-4-yl]-1-[(5R)-2-methyl-1-oxo-2,7-diazaspiro[4.5]dec-7-yl]-5H-pyrido[4,3-b]indole-4-carboxamide] | 0.55 |
| CN1CC[C@@]2(CCCN(c3ncc(C(N)=O)c4[nH]c5cc(-c6ccc(C(O)C(F)(F)F)cc6)ccc5c34)C2)C1=O (stereo partly drawn) [Example 78, 1-[(5R)-2-methyl-1-oxo-2,7-diazaspiro[4.5]dec-7-yl]-7-[4-(2,2,2-trifluoro-1-hydroxyethyl)phenyl]-5H-pyrido[4,3-b]indole-4-carboxamide] | 59.9 |
| CN1CC[C@@]2(CCCN(c3ncc(C(N)=O)c4[nH]c5cc(-c6cccc(C(O)C(F)(F)F)c6)ccc5c34)C2)C1=O (stereo partly drawn) [Example 79, 1-[(5R)-2-methyl-1-oxo-2,7-diazaspiro[4.5]dec-7-yl]-7-[3-(2,2,2-trifluoro-1-hydroxyethyl)phenyl]-5H-pyrido[4,3-b]indole-4-carboxamide] | 63 |
| Cc1noc(C)c1-c1ccc2c(c1)[nH]c1c(C(N)=O)cnc(N3CCC[C@@]4(CCN(C)C4=O)C3)c12 [Example 80, 7-(3,5-dimethylisoxazol-4-yl)-1-[(5R)-2-methyl-1-oxo-2,7-diazaspiro[4.5]dec-7-yl]-5H-pyrido[4,3-b]indole-4-carboxamide] | 12.7 |
| COC(=O)CC1CCC(c2ccc3c(c2)[nH]c2c(C(N)=O)cnc(N4CCC[C@@]5(CCN(C)C5=O)C4)c23)CC1 (stereo partly drawn) [Example 81, methyl (4-{4-carbamoyl-1-[(5R)-2-methyl-1-oxo-2,7-diazaspiro[4.5]dec-7-yl]-5H-pyrido[4,3-b]indol-7-yl}cyclohexyl)acetate] | 5.5 |
| CN1CC[C@@]2(CCCN(c3ncc(C(N)=O)c4[nH]c5cc(C6CCC(CC(C)(C)O)CC6)ccc5c34)C2)C1=O (stereo partly drawn) [Example 82, 7-[4-(2-hydroxy-2-methylpropyl)cyclohexyl]-1-[(5R)-2-methyl-1-oxo-2,7-diazaspiro[4.5]dec-7-yl]-5H-pyrido[4,3-b]indole-4-carboxamide] | 2.9 |
| NC(=O)c1cnc(N2CCCC3(C2)NCCNC3=O)c2c1[nH]c1ccccc12 (stereo not shown) [Example 87, 1-(5-oxo-1,4,8-triazaspiro[5.5]undecan-8-yl)-5H-pyrido[4,3-b]indole-4-carboxamide] | 82.8 |

The next lines start with the values.

| IC50 [nM] | SMILES |
| --- | --- |
| 76.9 | CN1CCC(c2ccc3[nH]c4c(C(N)=O)cnc(N5CCCC6(CCNC6=O)C5)c4c3c2)CC1 (stereo not shown) [Example 60, 8-(1-methylpiperidin-4-yl)-1-(1-oxo-2,7-diazaspiro[4.5]dec-7-yl)-5H-pyrido[4,3-b]indole-4-carboxamide] |
| 81.8 | CC(=O)N1CCC(c2ccc3[nH]c4c(C(N)=O)cnc(N5CCCC6(CCNC6=O)C5)c4c3c2)CC1 (stereo not shown) [Example 61, 8-(1-acetylpiperidin-4-yl)-1-(1-oxo-2,7-diazaspiro[4.5]dec-7-yl)-5H-pyrido[4,3-b]indole-4-carboxamide] |
| 59.7 | CC(C)(O)CN1CCC(c2ccc3[nH]c4c(C(N)=O)cnc(N5CCCC6(CCNC6=O)C5)c4c3c2)CC1 (stereo not shown) [Example 62, 8-[1-(2-hydroxy-2-methylpropyl)piperidin-4-yl]-1-(1-oxo-2,7-diazaspiro[4.5]dec-7-yl)-5H-pyrido[4,3-b]indole-4-carboxamide] |
| 16.5 | NC(=O)c1cnc(N2CCCC3(CCNC3=O)C2)c2c1[nH]c1ccc(C(O)CO)cc12 (stereo not shown) [Example 65, 8-(1,2-dihydroxyethyl)-1-(1-oxo-2,7-diazaspiro[4.5]dec-7-yl)-5H-pyrido[4,3-b]indole-4-carboxamide] |
| 125 | CS(=O)(=O)N1CCC(c2ccc3[nH]c4c(C(N)=O)cnc(N5CCCC6(CCNC6=O)C5)c4c3c2)CC1 (stereo not shown) [Example 66, 8-[1-(methylsulfonyl)piperidin-4-yl]-1-(1-oxo-2,7-diazaspiro[4.5]dec-7-yl)-5H-pyrido[4,3-b]indole-4-carboxamide] |
| 3.9 | NC(=O)c1cnc(N2CCC[C@@]3(CCNC3=O)C2)c2c1[nH]c1cc(-c3ccc(=O)[nH]c3)ccc12 [Example 68, 1-[(5R)-1-oxo-2,7-diazaspiro[4.5]dec-7-yl]-7-(6-oxo-1,6-dihydropyridin-3-yl)-5H-pyrido[4,3-b]indole-4-carboxamide] |
| 5.4 | NC(=O)c1cnc(N2CCC[C@@]3(CCNC3=O)C2)c2c1[nH]c1cc(-c3cc[nH]c(=O)c3)ccc12 [Example 70, 1-[(5R)-1-oxo-2,7-diazaspiro[4.5]dec-7-yl]-7-(2-oxo-1,2-dihydropyridin-4-yl)-5H-pyrido[4,3-b]indole-4-carboxamide] |
| 0.74 | NC(=O)c1cnc(N2CCC[C@@]3(CCNC3=O)C2)c2c1[nH]c1cc(C3CCC(=O)NC3)ccc12 (stereo partly drawn) [Example 73, 1-[(5R)-1-oxo-2,7-diazaspiro[4.5]dec-7-yl]-7-(6-oxopiperidin-3-yl)-5H-pyrido[4,3-b]indole-4-carboxamide] |
| 57.2 | COC(=O)c1ccc2c(c1)[nH]c1c(C(N)=O)cnc(N3CCCC4(CCNC4=O)C3)c12 (stereo not shown) [Example 83, Methyl 4-carbamoyl-1-(1-oxo-2,7-diazaspiro[4.5]decan-7-yl)-5H-pyrido[4,3-b]indole-7-carboxylate] |
| 48.8 | NC(=O)c1cnc(N2CCCC3(CCNC3=O)C2)c2c1[nH]c1ccc(C(=O)O)cc12 (stereo not shown) [Example 84, 4-carbamoyl-1-(1-oxo-2,7-diazaspiro[4.5]dec-7-yl)-5H-pyrido[4,3-b]indole-8-carboxylic acid] |
| 448 | NC(=O)c1cnc(N2CCCC3(CCNC3=O)C2)c2c1[nH]c1cc(C(=O)O)ccc12 (stereo not shown) [Example 85, 4-carbamoyl-1-(1-oxo-2,7-diazaspiro[4.5]dec-7-yl)-5H-pyrido[4,3-b]indole-7-carboxylic acid] |
